From US10722520B2, “Heterocyclic compounds and their use in preventing or treating bacterial infections” (MUTABILIS, priority 2016, dated 2020) come the findings set out here.

Structures can show the parent of a compound that is named as a salt. Where two headings read alike, the source gives them in different places.

The target of assay [1] is OXA-15 (Pseudomonas aeruginosa, UniProt Q51574). Kind of assay: biochemical.
The target in assay [2] is AmpC (PAE) (Pseudomonas aeruginosa, UniProt P24735). Briefly: biochemical.
For assay [3], the target named is SHV-1 (Klebsiella pneumoniae, UniProt P0AD64).
Assay [4] has as its target CTX-M-15 (Escherichia coli, UniProt Q9EXV5).
The target in assay [5] is AmpC (P99) (Enterobacter cloacae, UniProt P05364). Kind of assay: biochemical.
Assay [6] relates to P. aeruginosa CIP107051. Briefly: MIC of compound alone, broth microdilution. The format is cell-based. The settings on record: Pseudomonas aeruginosa; strain CIP107051; compound alone; read-out: MIC compounds of the invention alone. The procedure, abridged:
(§1)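 Log-phase bacteria were diluted to a final 5×10^5 cfu/mL in cation-adjusted Mueller-Hinton broth and incubated 16-20 h at 35° C in ambient air. MIC was taken as the lowest concentration preventing growth, judged visually.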

Assay [7] deals with E. cloacae P99. Briefly: MIC of compound alone, broth microdilution. The format is cell-based. As to conditions: Enterobacter cloacae; strain P99; compound alone; read-out: MIC compounds of the invention alone. In short, it runs like this: as §1
Assay [8] relates to E. coli 190317. Kind of assay: MIC of compound alone, broth microdilution. The class given is cell-based. The settings on record: Escherichia coli; strain 190317; compound alone; read-out: MIC compounds of the invention alone. In short, it runs like this: as §1
The test system of assay [9] is K. pneumoniae BAA-1898. Briefly: MIC of compound alone, broth microdilution. The format is cell-based. The settings on record: Klebsiella pneumoniae, BAA1898; strain BAA-1898; compound alone; read-out: MIC compounds of the invention alone. In short, it runs like this:
as §1

In assay [10] the test system is K. pneumoniae 6299. Kind of assay: MIC of compound alone, broth microdilution. As to conditions: Klebsiella pneumoniae; strain 6299; compound alone; read-out: MIC compounds of the invention alone. The class given is cell-based. The procedure, abridged:
as §1

Assay [11] deals with OXA-1 (Escherichia coli, UniProt P13661).
In assay [12] the target is CMY-37 (Citrobacter freundii, UniProt P05193). As to conditions: read-out: IC50 β-lactamase CMY-37.
Assay [13] deals with OXA-11 (Pseudomonas aeruginosa, UniProt Q06778).
For assay [14], the target named is OXA-48 (Klebsiella pneumoniae, UniProt Q6XEC0).
Assay [15] deals with KPC-2 (Klebsiella pneumoniae, UniProt Q9F663).
Assay [16] deals with TEM-1 (Escherichia coli, UniProt P62593).
The mark [17] stands for this setting: class (C), nitrocefin 200 μM, 30-min pre-incubation, enzyme 0.2 nM.

As to `O=C(Nc1nccs1)c1ccn(C2=CC3CN(C2)C(=O)N3OS(=O)(=O)[O-])n1.[Na+]` (stereo not drawn) [Example 25, sodium [7-oxo-3-[3-(thiazol-2-ylcarbamoyl)pyrazol-1-yl]-1,6-diazabicyclo[3.2.1]oct-3-en-6-yl]sulfate], the IC50 in assay [1] is 12 nM; in assay [2], 130 nM; in assay [3], 1.2 nM; in [4], 0.43 nM; in [5], 9.4 nM; in assay [11], 37 nM. Also, the IC50 in assay [12] was found to be 9.2 nM; in assay [13] it was 4.2 nM; in assay [14], 1.7 nM; in [15] it was 2.5 nM; in assay [16], 0.29 nM. Besides, the MIC in assay [6], in assay [7], in assay [8], in assay [9] and in [10] was more than 32 µg/mL each time.
Consider `O=C(CCO)Nc1ccn(C2=CC3CN(C2)C(=O)N3OS(=O)(=O)[O-])n1.[Na+]` (stereo not drawn) [Example 51, sodium [3-[3-(3-hydroxypropanoylamino)pyrazol-1-yl]-7-oxo-1,6-diazabicyclo[3.2.1]oct-3-en-6-yl]sulfate], for which the IC50 in assay [1] stood at 76 nM; in [2] it was 78 nM; in [3] it was 1.9 nM; in assay [4] it was 0.28 nM; in [5], 17 nM; in assay [11], 97 nM. The IC50 in assay [12] turned out to be 6.3 nM; in assay [13] it was 12 nM; in [14], 3.8 nM; in assay [15], 18 nM; in [16], 0.3 nM. Besides, the MIC in assay [6] was more than 32 µg/mL; in assay [7], 16 µg/mL; in assay [8], 8 µg/mL; in assay [9], 32 µg/mL; in assay [10] it was 16 µg/mL.
For `O=C(N[C@H]1CCNC1)c1ccn(C2=CC3CN(C2)C(=O)N3OS(=O)(=O)O)n1` (stereo partly drawn) [Example 82, [7-oxo-3-[3-[[(3S)-pyrrolidin-3-yl]carbamoyl]pyrazol-1-yl]-1,6-diazabicyclo[3.2.1]oct-3-en-6-yl]hydrogen sulfate], the IC50 in assay [1] stood at 47 nM; in assay [2], 270 nM; in [3], 4.9 nM; in assay [4], 0.89 nM; in assay [5], 32 nM; in assay [11], 110 nM. For the same molecule, the IC50 in assay [12] (setting [17]) amounted to 61 nM; in [13] it was 22 nM; in assay [14], 3.2 nM; in assay [15], 10 nM; in assay [16], 0.58 nM. In addition, the MIC is more than 32 µg/mL in [6]; 4 µg/mL in assay [7]; 2 µg/mL in assay [8]; 32 µg/mL in assay [9]; 32 µg/mL in assay [10].
As to `[2H]c1nn(C2=CC3CN(C2)C(=O)N3OS(=O)(=O)[O-])c([2H])c1[2H].[Na+]` (stereo not drawn) [Example 43, sodium [7-oxo-3-(3,4,5-trideuteriopyrazol-1-yl)-1,6-diazabicyclo[3.2.1]oct-3-en-6-yl]sulfate], the IC50 was found to be 140 nM in assay [1]; 9.4 nM in assay [2]; 3.6 nM in assay [3]; 0.87 nM in assay [4]; 12 nM in [5]; 98 nM in assay [11]. For the same molecule, the IC50 in [12] came to 6.4 nM; in assay [13], 39 nM; in [14], 6 nM; in assay [15], 29 nM; in assay [16], 0.85 nM. The MIC in assay [6] is more than 32 µg/mL; in assay [7], 4 µg/mL; in [8] it was 1 µg/mL; in assay [9], 8 µg/mL; in assay [10], 8 µg/mL.
`O=C(NOCCO)c1ccn(C2=CC3CN(C2)C(=O)N3OS(=O)(=O)[O-])n1.[Na+]` (stereo not drawn) [Example 47, sodium [3-[3-(2-hydroxyethoxycarbamoyl)pyrazol-1-yl]-7-oxo-1,6-diazabicyclo[3.2.1]oct-3-en-6-yl]sulfate]: the IC50 in assay [1] was found to be 160 nM; in [2], 480 nM; in assay [3], 9.1 nM; in assay [4], 1.1 nM; in assay [5], 32 nM; in assay [11] it was 200 nM. The IC50 in [12] stood at 32 nM; in [13], 100 nM; in assay [14] it was 6.7 nM; in assay [15], 12 nM; in assay [16], 1.5 nM. The MIC was more than 32 µg/mL in assay [6]; 32 µg/mL in [7]; 8 µg/mL in [8]; 32 µg/mL in assay [9]; 32 µg/mL in assay [10].
As to `NC(=O)c1cnn(C2=CC3CN(C2)C(=O)N3OS(=O)(=O)[O-])c1.[Na+]` (stereo not drawn) [Example 7, sodium [3-(4-carbamoylpyrazol-1-yl)-7-oxo-1,6-diazabicyclo[3.2.1]oct-3-en-6-yl]sulfate], the IC50 was 55 nM in [1]; 400 nM in [2]; 4.7 nM in assay [3]; 2.7 nM in [4]; 21 nM in assay [5]; 250 nM in assay [11]. Also, the IC50 in assay [12] was found to be 22 nM; in assay [13], 93 nM; in [14], 7.8 nM; in assay [15] it was 12 nM; in assay [16] it was 0.72 nM. Besides, the MIC in [6] was more than 32 µg/mL; in assay [7], more than 32 µg/mL; in [8] it was 16 µg/mL; in [9], more than 32 µg/mL; in [10], more than 32 µg/mL.
On to `O=C(Nc1ncco1)c1ccn(C2=CC3CN(C2)C(=O)N3OS(=O)(=O)[O-])n1.[Na+]` (stereo not drawn) [Example 37, sodium [7-oxo-3-[3-(oxazol-2-ylcarbamoyl)pyrazol-1-yl]-1,6-diazabicyclo[3.2.1]oct-3-en-6-yl]sulfate], for which the IC50 worked out at 32 nM in assay [1]; 200 nM in assay [2]; 3.2 nM in assay [3]; 0.46 nM in assay [4]; 9.7 nM in assay [5]; 73 nM in assay [11]. Also, the IC50 in assay [12] came out at 15 nM; in [13], 21 nM; in assay [14], 2.5 nM; in [15], 2.9 nM; in assay [16], 0.5 nM. The MIC in assay [6] was more than 32 µg/mL; in [7], more than 32 µg/mL; in [8] it was 8 µg/mL; in [9] it was more than 32 µg/mL; in assay [10], more than 32 µg/mL.
On to `NCCONC(=O)c1cn(C2=CC3CN(C2)C(=O)N3OS(=O)(=O)O)nn1` (stereo not drawn) [Example 63, [3-[4-(2-aminoethoxycarbamoyl)triazol-1-yl]-7-oxo-1,6-diazabicyclo[3.2.1]oct-3-en-6-yl]hydrogen sulfate], for which the IC50 was found to be 41 nM in assay [1]; 530 nM in [2]; 6.9 nM in [3]; 0.53 nM in assay [4]; 19 nM in assay [5]; 52 nM in assay [11]. In addition, the IC50 came out at 55 nM in [12] (setting [17]); 110 nM in [13]; 0.97 nM in assay [14]; 4.7 nM in assay [15]; 0.86 nM in [16]. In addition, the MIC in [6] was more than 32 µg/mL; in [7], 16 µg/mL; in [8], 8 µg/mL; in [9], 32 µg/mL; in [10] it was more than 32 µg/mL.
With `NC(=O)CONC(=O)c1ccn(C2=CC3CN(C2)C(=O)N3OS(=O)(=O)[O-])n1.[Na+]` (stereo not drawn) [Example 52, sodium [3-[3-[(2-amino-2-oxo-ethoxy)carbamoyl]pyrazol-1-yl]-7-oxo-1,6-diazabicyclo[3.2.1]oct-3-en-6-yl]sulfate], the IC50 in [1] was 260 nM; in assay [2], 110 nM; in assay [3], 9.1 nM; in assay [4], 0.67 nM; in assay [5], 16 nM; in assay [11] it was 310 nM. The IC50 in assay [12] amounted to 8.8 nM; in assay [13] it was 130 nM; in [14], 7.5 nM; in [15] it was 11 nM; in assay [16] it was 1.9 nM. In addition, the MIC was more than 32 µg/mL in assay [6]; 16 µg/mL in assay [7]; 8 µg/mL in assay [8]; 32 µg/mL in assay [9]; 16 µg/mL in assay [10].
